# Columns and labels:
# clinical = details: human, in vivo, po
# physchem [1] = details: octanol/water
# [2] = octanol/water
# physchem [3] = experiment: physchem
# [4] = octanol/water; remark: listed apart in the source
# physchem [5] = details: octanol/water, pH 6.5
SMILES,bioavailability (clinical; F) [%],"logD (physchem [1]; pH 6.5, logD)",delta logD [2],pKa (physchem [3]),bioavailability (clinical) [%],logD (physchem [1]; pH 6.5),delta logD [4],logD (physchem [5])
CNCCC[C@]12CC[C@H](c3ccccc31)c1ccccc12,79,0.52,-0.9,10.5,,,,
CC(C)(C)NC(=O)C1CC[C@H]2[C@]3(C)CC[C@H]4NC(=O)C=C[C@]4(C)[C@H]3CC[C@]12C (stereo partly specified),79,3.03,0,,,,,
CO/C(O)=C1\C(C)=NC(C)=C(C(=O)OCC(C)C)C1c1ccccc1[N+](=O)[O-] (stereo unspecified),< 20,1.58,0,,,,,
CC(C)=CCN1CC[C@@]2(C)c3cc(O)ccc3C[C@@H]1[C@@H]2C,,,-0.88,8.8,49,1.05,,
Nc1nc(N)c2nc(-c3ccccc3)c(N)nc2n1,79,0.8,-0.15,6.2,,,,
CN(C)CCC=C1c2ccccc2CCc2ccccc21 [AMITRIPTYLINE],,,-0.9,,49,2.14,,
CC(=O)Oc1ccccc1C(=O)O [ASPIRIN],79,-1.81,0.9,,,,,
C[C@H]1C[C@H]2[C@@H]3CCC4=CC(=O)C=C[C@]4(C)[C@@]3(F)[C@@H](O)C[C@]2(C)[C@@]1(O)C(=O)CO [BETAMETHASONE],,1.94,0,,,,,
Cc1ncsc1CCCl [CLOMETHIAZOLE],,,0,,< 20,2.12,,
O=C1CN=C(c2ccccc2Cl)c2cc([N+](=O)[O-])ccc2N1 [CLONAZEPAM],,,0,,> 80,2.41,,
CN1CCN(C2=Nc3cc(Cl)ccc3Nc3ccccc32)CC1 [CLOZAPINE],,,-0.81,,79,1.81,,
O=P1(N(CCCl)CCCl)NCCCO1 (stereo unspecified) [CYCLOPHOSPHAMIDE ANHYDROUS],,,0,,> 80,0.63,,
C[C@@H]1C[C@H]2[C@@H]3CCC4=CC(=O)C=C[C@]4(C)[C@@]3(F)[C@@H](O)C[C@]2(C)[C@@]1(O)C(=O)CO [DEXAMETHASONE],,1.83,0,,,,,
O=c1[nH]c2ccccc2n1CCCN1CCC(n2c(=O)[nH]c3cc(Cl)ccc32)CC1 [DOMPERIDONE],,,,,,2.83,,
CCCCCc1cc(O)c2c(c1)OC(C)(C)[C@@H]1CCC(C)=C[C@@H]21 [DRONABINOL],,,0,,< 20,4.49,,
C#C[C@]1(O)CC[C@H]2[C@@H]3CCc4cc(O)ccc4[C@H]3CC[C@@]21C [ETHINYL ESTRADIOL],49,3.67,0,,,,,
CCC1(C)CC(=O)NC1=O (stereo unspecified) [ETHOSUXIMIDE],,,0,,> 80,-0.33,,
Nc1nc(=O)[nH]cc1F [FLUCYTOSINE],> 80,-1.65,0,,,,,
O=C(CCCN1CCC(O)(c2ccc(Cl)cc2)CC1)c1ccc(F)cc1 [HALOPERIDOL],79,1.42,-0.86,,,,,
NNC(=O)c1ccncc1 [ISONIAZID],> 80,-0.7,0,,,,,
C[C@H]1C[C@@H]2[C@H]([C@@H](O)C[C@@]3(C)[C@H]2CC[C@]3(O)C(=O)CO)[C@@]2(C)C=CC(=O)C=C12 [METHYLPREDNISOLONE],> 80,1.66,0,,,,,
COCCc1ccc(OCC(O)CNC(C)C)cc1 (stereo unspecified) [METOPROLOL],49,-1.32,,,,,,
CN1CCN2c3ccccc3Cc3ccccc3C2C1 (stereo unspecified) [MIANSERIN],49,2.78,-0.52,,,,,
C=CCN1CC[C@]23c4c5ccc(O)c4O[C@H]2C(=O)CC[C@@]3(O)[C@H]1C5 [NALOXONE],,,-0.81,,< 20,0.64,,

SMILES,bioavailability (clinical; F) [%],"logD (physchem [1]; pH 6.5, logD)",delta logD [2],pKa (physchem [3]),bioavailability (clinical) [%],logD (physchem [1]; pH 6.5),delta logD [4],logD (physchem [5])
COC(=O)C1=C(C#N)NC(C)=C(C(=O)OC(C)C)C1c1cccc([N+](=O)[O-])c1 (stereo unspecified) [NILVADIPINE],< 20,1.99,0,,,,,
COCCOC(=O)C1=C(C)NC(C)=C(C(=O)OC(C)C)C1c1cccc([N+](=O)[O-])c1 (stereo unspecified) [NIMODIPINE],< 20,0.73,0,,,,,
O=C1CN=C(c2ccccc2)c2cc([N+](=O)[O-])ccc2N1 [NITRAZEPAM],,,0,,79,2.25,,
O=C1CN(/N=C/c2ccc([N+](=O)[O-])o2)C(=O)N1 [NITROFURANTOIN],> 80,-0.47,0,,,,,
C#C[C@]1(O)CC[C@H]2[C@@H]3CCC4=CC(=O)CC[C@@H]4[C@H]3CC[C@@]21C [NORETHINDRONE],79,2.97,0,,,,,
CNCCC=C1c2ccccc2CCc2ccccc21 [NORTRIPTYLINE],79,1.08,-0.9,,,,,
CC(=O)CCCCn1c(=O)c2c(ncn2C)n(C)c1=O [PENTOXIFYLLINE],49,0.29,0,,,,,
CCC1(c2ccccc2)C(=O)NC(=O)NC1=O [PHENOBARBITAL],,,0.21,,> 80,1.43,,
O=c1[nH]c2ccccc2n1C1CCN(CCCC(c2ccc(F)cc2)c2ccc(F)cc2)CC1 [PIMOZIDE],,,,7.3,,5.42,,
C[C@]12C=CC(=O)C=C1CC[C@@H]1[C@@H]2[C@@H](O)C[C@@]2(C)[C@H]1CC[C@]2(O)C(=O)CO [PREDNISOLONE],,,0,,,,,
C[C@]12C=CC(=O)C=C1CC[C@@H]1[C@@H]2C(=O)C[C@@]2(C)[C@H]1CC[C@]2(O)C(=O)CO [PREDNISONE],> 80,,0,,,,,
CCC1(c2ccccc2)C(=O)NCNC1=O [PRIMIDONE],> 80,0.91,0,,,,,
CCCN(CCC)S(=O)(=O)c1ccc(C(=O)O)cc1 [PROBENECID],≥ 80,,,3.4,,,0.9,0.11
CC(C)(Sc1cc(C(C)(C)C)c(O)c(C(C)(C)C)c1)Sc1cc(C(C)(C)C)c(O)c(C(C)(C)C)c1 [PROBUCOL],< 20,7.29,0,,,,,
CC(=O)[C@H]1CC[C@H]2[C@@H]3CCC4=CC(=O)CC[C@]4(C)[C@H]3CC[C@]12C [PROGESTERONE],,,0,,< 20,,,
C1COC(NC(C2CC2)C2CC2)=N1 [RILMENIDINE],≥ 80,,,9.3,,,-0.9,-0.94
Cc1nc2n(c(=O)c1CCN1CCC(c3noc4cc(F)ccc34)CC1)CCCC2 [RISPERIDONE],,,-0.9,,79,0.74,,
CC(=O)S[C@@H]1CC2=CC(=O)CC[C@]2(C)[C@H]2CC[C@@]3(C)[C@@H](CC[C@@]34CCC(=O)O4)[C@H]12 [SPIRONOLACTONE],49,2.78,0,,,,,
CN1C(C(=O)Nc2ccccn2)=C(O)c2sccc2S1(=O)=O [TENOXICAM],≥ 80,,,5.1,,,0.88,0.56
COc1cc2nc(N3CCN(C(=O)C4CCCO4)CC3)nc(N)c2cc1OC (stereo unspecified) [TERAZOSIN],> 80,0.29,-0.52,,,,,
CC(C)(C)NCC(O)c1cc(O)cc(O)c1 (stereo unspecified) [TERBUTALINE],< 20,-1.82,-0.89,,,,,
CCN(CC)C(=O)N[C@H]1C[C@@H]2c3cccc4[nH]cc(c34)C[C@H]2N(C)C1 [TERGURIDE],,,,6.8,≤ 20,,-0.32,2.05
C[C@]12CC[C@H]3[C@@H](CCC4=CC(=O)CC[C@@]43C)[C@@H]1CC[C@@H]2O [TESTOSTERONE],,,0,,< 20,,,
O=C(NCCNCC(O)COc1ccc(O)cc1)N1CCOCC1 (stereo unspecified) [XAMOTEROL],≤ 20,,,7.8,,,-0.78,-0.8

# From ChEMBL document CHEMBL1133765, “QSAR model for drug human oral bioavailability” (J Med Chem, 2000)
